{
  "source": "patent US4497818A",
  "about": "“2-(1,4-Benzodioxan-2-ylalkyl)imidazoles useful as antihypertensives and platelet aggregation inhibitors” (Syntex (U.S.A.) Inc., priority 1981, dated 1985)",
  "key": {"[1]": {"assay": "LD50, intraperitoneal injection in mice", "conditions": "mouse, in vivo, ip, per body weight"}, "[2]": {"biological_target": "T1, post-synaptic α-adrenoceptor (α1) (Rattus norvegicus, UniProt P43140)", "T1 construct": "from tissue; host or cells: rat isolated vas deferens, epididymal portion", "T1 sequence (P43140 1-466)": "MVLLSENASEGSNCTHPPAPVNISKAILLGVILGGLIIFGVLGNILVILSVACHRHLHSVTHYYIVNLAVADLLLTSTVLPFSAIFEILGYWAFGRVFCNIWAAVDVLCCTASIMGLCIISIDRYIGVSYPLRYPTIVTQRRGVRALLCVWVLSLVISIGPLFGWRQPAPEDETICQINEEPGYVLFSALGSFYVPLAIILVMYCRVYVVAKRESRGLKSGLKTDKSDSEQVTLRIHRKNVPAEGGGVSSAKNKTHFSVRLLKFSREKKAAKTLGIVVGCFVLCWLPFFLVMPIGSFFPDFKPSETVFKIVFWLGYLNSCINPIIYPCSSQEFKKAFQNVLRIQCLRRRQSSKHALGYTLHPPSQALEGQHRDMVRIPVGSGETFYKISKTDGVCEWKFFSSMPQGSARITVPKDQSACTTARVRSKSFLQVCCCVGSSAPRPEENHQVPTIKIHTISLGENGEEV", "assay": "Post-synaptic α-adrenoceptor blockade (epididymal portion of rat vas deferens, contractile effects of phenylephrine)", "type": "cell-based", "conditions": "phenylephrine agonist, number of determinations in parentheses; for Kb: for 1-ethyl b174 = lot No. 1, b175 = lot No. 2, read-out: pA2 (α1) (converted)", "text": "The contralateral portions served as control tissues.\nJ. Pharmacol.; 14: 48-58 (1959)."}, "[3]": {"tested_on": "spontaneously hypertensive rats", "assay": "Antihypertensive activity in spontaneously hypertensive rats", "type": "in vivo, rat", "conditions": "50 mg per kg orally on two consecutive mornings; hydrochloride salt; measured during four hours after second dose", "experimental": "Spontaneously hypertensive rats were divided into groups of four animals each with approximately equal mean systolic blood pressures. One such group serves as a control against another group which is given the compound to be tested. On two consecutive mornings, the test group was dosed orally with 50 mg per kg of 1-ethyl-2-(1,4-benzodioxane-2-ylmethyl)imidazole as a hydrochloride salt which was suspended in a vehicle of water and tween. The control group received vehicle only. Immediately after dosing on the second day, the rats were put in restrainers and placed in a heated chamber at 30° C. for four hours.\nDuring this time, systolic blood pressures were determined at four consecutive 20 second intervals using photoelectric transducers. The mean systolic blood pressure of each rat (as an average of these four measurements) was recorded. The results are given as percentage lowering of the mean systolic blood pressure in the experimental as compared with the control group."}, "blood platelets": {"tested_on": "blood platelets", "assay": "Platelet aggregation inhibition", "type": "cell-based", "conditions": "hydrochloride salt; for inhibition at 500 µM: at 5 × 10^-4 M, read-out: inhibition From Maximum Height (ΔT)", "experimental": "Blood platelets are collected in the standard manner, and incubated in an Aggregation Module Incubator-Cuvette in the presence of either the inhibitor to be tested, or without said inhibitor as a control. The aggregation of the platelets is observed after the addition of an inducer, and the samples are evaluated for the presence of a lag period and the slope of the aggregation curve, as well as the maximum height of the aggregation curve in comparison to the control."}},
  "note": "Like-named read-outs stand apart in the source and are kept apart here.",
  "data": [
    {"smiles": "c1ccc2c(c1)OCC(Cc1ncc[nH]1)O2", "note": "(stereo not drawn) [2-(1,4-benzodioxan-2-ylmethyl)imidazole]", "values": [
      {"measurement": "LD50", "setting": "[1]", "value": 70, "unit": "mg/kg"},
      {"measurement": "Kb", "setting": "[2]", "value": 0.794, "unit": "µM"}
    ]},
    {"smiles": "CCn1ccnc1CC1COc2ccccc2O1", "note": "(stereo not drawn) [1-ethyl-2-(1,4-benzodioxan-2-ylmethyl)imidazole]", "values": [
      {"measurement": "LD50", "setting": "[1]", "value": 200, "unit": "mg/kg"},
      {"measurement": "pA2 (α1)", "setting": "[2]; for 1-ethyl b174 = lot No. 1, b175 = lot No. 2", "value": 4.00},
      {"measurement": "Kb", "setting": "[2]", "value": 100, "unit": "µM"}
    ]},
    {"smiles": "Cn1ccnc1CC1COc2ccccc2O1", "note": "(stereo not drawn) [1-methyl-2-(1,4-benzodioxan-2-ylmethyl)imidazole]", "values": [
      {"measurement": "Kb", "setting": "[2]", "value": 50.1, "unit": "µM"}
    ]},
    {"smiles": "c1ccc2c(c1)OCC(CCc1ncc[nH]1)O2", "note": "(stereo not drawn) [2-(2-(1,4-benzodioxan-2-yl)ethyl)imidazole]", "values": [
      {"measurement": "Kb", "setting": "[2]", "value": 0.617, "unit": "µM"}
    ]},
    {"smiles": "CCCn1ccnc1CC1COc2ccccc2O1", "note": "(stereo not drawn) [1-propyl-2-(1,4-benzodioxan-2-ylmethyl)imidazole]", "values": [
      {"measurement": "LD50", "setting": "[1]", "value": 200, "unit": "mg/kg"},
      {"measurement": "Kb", "setting": "[2]", "value": 63.1, "unit": "µM"}
    ]},
    {"smiles": "CCn1ccnc1CC1COc2ccccc2O1", "note": "(stereo not drawn) [1-ethyl-2-(1,4-benzodioxane-2-ylmethyl)imidazole]", "values": [
      {"measurement": "lowering of the mean systolic blood pressure compared with control group", "setting": "[3]", "value": 29, "unit": "%"},
      {"measurement": "inhibition at 1000 µM", "setting": "blood platelets; inducer ADP (5 × 10^-6 M), at 10^-3 M, read-out: inhibition From Slope (Rate)", "value": 20, "unit": "%"},
      {"measurement": "IC50", "setting": "blood platelets; inducer ADP (5 × 10^-6 M), read-out: IC50 From Maximum Height (ΔT)", "value": 1000, "unit": "µM"},
      {"measurement": "IC50", "setting": "blood platelets; inducer arachidonic acid (2.5 × 10^-4 M), read-out: IC50 From Maximum Height (ΔT)", "value": 190, "unit": "µM"},
      {"measurement": "IC50", "setting": "blood platelets; inducer arachidonic acid (2.5 × 10^-4 M), read-out: IC50 From Slope (Rate)", "value": 310, "unit": "µM"},
      {"measurement": "inhibition at 500 µM", "setting": "blood platelets; inducer collagen (30&)", "value": 27, "unit": "%"},
      {"measurement": "IC50", "setting": "blood platelets; inducer collagen (30&), read-out: IC50 From Slope (Rate)", "value": 450, "unit": "µM"},
      {"measurement": "inhibition at 50 µM", "setting": "blood platelets; inducer epinephrine (5 × 10^-6 M), 5 × 10^-5 M, read-out: inhibition From Slope (Rate)", "value": 99, "unit": "%"},
      {"measurement": "inhibition at 500 µM", "setting": "blood platelets; inducer epinephrine (5 × 10^-6 M)", "value": 5, "unit": "%"}
    ]}
  ]
}
